Series [1] relates to E. coli 1057 WT. Briefly: microbe, parasite or virus in culture. In kind it is cell-based, Escherichia coli. To be noted: MHB + 0.9% NaCl.
The subject of series [2] is E. coli 1057 R2 (rpoS^Q3stop, macB^N470D). To be noted: MHB + 0.9% NaCl. As to the method:
Minimum inhibitory concentrations (MIC) were determined by broth microdilution assay based on Clinical and Laboratory Standards Institute (CLSI) guidelines using BSA in the growth medium to minimize AMP nonspecific adsorption. Bacterial test cultures were grown in the Mueller-Hinton broth (MHB, Sigma) at 37 °C to mid-log phase and then diluted with the 2× MH medium supplemented with 1.8% NaCl (or without salt) so that to reach a final cell concentration of 10^6 CFU/mL. 50 µL of the obtained bacterial suspension were added to aliquots of 50 µL of the peptide solutions serially diluted with sterilized 0.1% bovine serum albumin (BSA) in 96-well flat-bottom polystyrene microplates (Eppendorf #0030730011). […] To verify MIC values, the respiratory activity of the bacteria was determined. Briefly, 5 µL of 0.5 mg/mL resazurin (Sigma) was added to the wells after 24 h (or after 48 h for M. smegmatis) of incubation, and the plate was incubated for additional 3 h. In some cases, MICs were determined in the Lysogeny Broth (LB) or Middlebrook 7H9 medium. The reduction of resazurin to resorufin was recorded. […] The results were expressed as the median values determined based on at least three independent experiments performed in triplicate.
Resistance induction experiments were performed using the previously described method. This approach allows for monitoring MIC values after each transfer. Briefly, on the first day, the overnight culture of the wild-type bacteria was diluted with the 2× MHB supplemented with 1.8% NaCl (or without salt) to reach a final cell concentration of 10^6 CFU/mL. 50 µL of the obtained bacterial suspension were added to aliquots of 50 µL of the peptide solutions serially diluted with the sterilized 0.1% BSA in 96-well flat-bottom polystyrene microplates. After incubation for 20 ± 2 h at 37 °C and 950 rpm, MICs were determined as described above. For each subsequent daily transfer, 2–4 μL of the inoculum taken from the first well containing a sub-inhibitory drug concentration was diluted with 2 mL of the fresh 2× MHB supplemented with 1.8% NaCl (or without salt). […] Multiple repeated passages in the presence of antimicrobial agents were performed for each bacterial strain during the experiment. Bacteria that grew at the highest concentrations of AMPs on the final day were passaged further 3 times on drug-free agar plates before determining the final MIC value.

The subject of series [3] is E. coli BL21 (DE3) Star cell extract. Briefly: Cell-free protein synthesis (coupled transcription/translation) of EGFP. The class given is biochemical, Escherichia coli. The note with it: minimum concentration that provides >90% inhibition of the EGFP synthesis in the CFPS system. As to the method:
To investigate the effects of AMPs and antibiotics on the coupled transcription/translation process, the test compounds were added to a cell-free protein synthesis (CFPS) reaction mix with a plasmid encoding enhanced green fluorescent protein (EGFP) variant (F64L, S65T, Q80R, F99S, M153T, and V163A) under control of the T7 promoter. The cell lysate was prepared using the E. coli BL21 Star (DE3) overexpressed T7 RNA polymerase as described previously. The reaction mix consisted of the following components: 1.2 mM ATP, 0.8 mM UTP, 0.8 mM GTP, 0.8 mM CTP, 2 mM of each of 20 proteinogenic amino acids, 1.5 mM spermidine, 1 mM putrescine dihydrochloride, 0.06647 mM calcium folinate, […] tRNA from the E. coli MRE 600 strain, 0.33 mM NAD, 120 mM HEPES-KOH (pH 8.0), 10 mM ammonium glutamate, 175 mM potassium glutamate, 60 mM glucose, 15 mM magnesium glutamate, 2% PEG 8000, 25% E. coli BL21 Star (DE3) cell lysate, 1 ng/ml plasmid DNA. The reaction volume was 50 µL. The peptides were dissolved in PBS with the addition of 0.1% BSA. Erythromycin was used in the positive control reactions. The fluorescence of the sample without inhibitor was set as the 100% value. The reaction proceeded for 2 h in 96-well v-bottom black polystyrene microplates (Eppendorf #0030601904) in a plate shaker (30 °C, 1000 rpm). The fluorescence of the synthesized EGFP was measured with the microplate reader AF2200 (λEx = 488 nm, λEm = 510 nm; Eppendorf). The experimental data were obtained from at least two independent experiments performed in triplicate. Non-linear regression curves were generated using GraphPad Prism v.8.0.1 (GraphPad Software Inc.).

The test system of series [4] is E. coli BW25113. The series can be described thus: MIC broth microdilution. In kind it is cell-based, Escherichia coli. The note with it: for Minimum inhibitory concentration MHB + 0.9% NaCl: Mueller-Hinton broth + 0.9% NaCl; for Minimum inhibitory concentration MHB + 0.9% NaCl / Minimum inhibitory concentration MHB: 24 h 37 °C, median of ≥3 experiments; for Minimum inhibitory concentration MHB: Mueller-Hinton broth without salt; for fold change of MIC vs wild-type rumicidin-1: N-terminal shortening. The procedure:
The reduction of resazurin to resorufin was recorded.
A general note: Dilution methods test growth across graded concentrations, often in twofold steps.

Series [5] deals with HaCaT (keratinocytes). Briefly: MTT cytotoxicity. In kind it is cell-based, human. To be noted: mean. As to the method: (§1) Hemolytic activity of the peptides was tested against the fresh suspension of human red blood cells (hRBC) using the hemoglobin release assay as described previously. Two experiments were performed with the hRBC from blood samples collected from healthy donors by certified medical personnel upon informed written consent. All procedures were approved by the Ethics Committee of the Institute of Experimental Medicine (protocol 1/20 of 2/27/2020) and comply with the ethical principles of the Declaration of Helsinki. The quantitative data were represented as average means with standard deviations. The colorimetric 3-(4,5-dimethylthiazol-2-yl)-2,5-diphenyltetrazolium bromide (MTT) dye reduction assay was used to determine cytotoxicity of the peptides against human keratinocyte cell line (HaCaT) and transformed human embryonic kidney cells (HEK293T). Both cell lines were purchased from American Type Culture Collection (ATCC). 10^4 cells per well in Dulbecco’s modified Eagle’s medium (DMEM/F12) supplemented with 10% fetal bovine serum (FBS, Invitrogen) were placed into 96-well plates and then cultured in the CO2-incubator (5% CO2, 37 °C). After the media were removed, the peptides were dissolved in 100 µL of the same medium and added to cell cultures at different final concentrations. 20 h later, 20 μL of MTT (5 mg/mL, Sigma) was added to each well, and the plates were incubated for 4 h at 37 °C. Then, the media were discarded and 100 µL DMSO-isopropanol mixture at a ratio of 1:1 (v/v) was added to each well to dissolve the crystallized formazan. The absorbance at 570 nm was measured by a microplate reader AF2200 (Eppendorf). An optical density in the wells containing cells cultured without the peptides was assumed to represent 100% cell viability. Two independent experiments were performed for each peptide.

In series [6] the test system is HEK293T (transformed embryonic kidney cells). The series can be described thus: MTT cytotoxicity. To be noted: mean. The class given is cell-based, human. As to the method: as §1

Ends that are not written are not given here. Bounds are passed on as bounds.

On to `[H]/N=C(/N)N[C@H]1[C@H](O)[C@@H](O)[C@H](O[C@@H]2O[C@@H](C)[C@](O)(C=O)[C@H]2O[C@@H]2O[C@@H](CO)[C@H](O)[C@@H](O)[C@@H]2NC)[C@@H](N/C(N)=N\[H])[C@@H]1O` [Streptomycin], for which the MIC in series [1] (Escherichia coli, 1057WT, 24 h) was 4 µM.
Turning to Gentamycin, the MIC in series [2] and in series [1] was 2 µM in each case.
For the molecule `O=C(N[C@H](CO)[C@H](O)c1ccc([N+](=O)[O-])cc1)C(Cl)Cl` [Chloramphenicol], the MIC in series [1] (Escherichia coli, 1057WT, 24 h) is 16 µM.
As to “RPRPPKPRPPHRPRPRPRPWFPPRFP [Rum-1[4-29]]”, in series [3], the Protein synthesis inhibition was determined as 4 µM. Besides, in series [4], the “Minimum inhibitory concentration MHB + 0.9% NaCl” value came out at 16 µM, the “Minimum inhibitory concentration MHB” value came to 4 µM and the “fold change of MIC vs wild-type rumicidin-1” value (“fold change of MIC” below) is on record as “two-fold”.
As for “RGGRLCYCRRRFCVCVGR (Protegrin-1; UniProt P32194 131-148, looked up) [β-hairpin AMP; recombinant]”, the MIC in series [2] and in series [1] was 0.25 µM throughout.
As for “RRLRPRRPRLPRPRPRPRPRPR [mini-ChBac7.5Nα]”, the MIC in series [2] is above 32 µM.
Consider RARRPRPPKPRPPHRPRPRPRP [Rum-1[1-22]], for which, in series [4], the “Minimum inhibitory concentration MHB + 0.9% NaCl” value came out at 256 µM and the “Minimum inhibitory concentration MHB” value was determined as 16 µM.
Consider `CN[C@@H]1[C@H](O)[C@H](NC)[C@H]2O[C@@]3(O)C(=O)C[C@@H](C)O[C@H]3O[C@@H]2[C@H]1O` [Spectinomycin], for which the MIC in series [1] (Escherichia coli, 1057WT, 24 h) came to 64 µM.
Same read-out and setting: the value for `CN(C)[C@@H]1C(O)=C(C(N)=O)C(=O)[C@@]2(O)C(O)=C3C(=O)c4c(O)cccc4[C@@](C)(O)[C@H]3C[C@@H]12` [Tetracycline] was 4 µM; that for `CCC[C@@H]1C[C@@H](C(=O)N[C@@H]([C@H]2O[C@H](SC)[C@H](O)[C@@H](O)[C@H]2O)[C@H](C)Cl)N(C)C1` [Clindamycin] was 128 µM; that for `CC1(C)S[C@@H]2[C@H](NC(=O)[C@H](N)c3ccccc3)C(=O)N2[C@H]1C(=O)O` [Ampicillin] was above 128 µM.
Take RARRPRPPKPRPPHRP [Rum-1[1-16]]: in series [4], the “Minimum inhibitory concentration MHB + 0.9% NaCl” value is above 256 µM and the “Minimum inhibitory concentration MHB” value is 256 µM.
Consider `CO[C@H]1/C=C/O[C@@]2(C)Oc3c(C)c(O)c4c(O)c(c(/C=N/N5CCN(C)CC5)c(O)c4c3C2=O)NC(=O)/C(C)=C\C=C\[C@H](C)[C@H](O)[C@@H](C)[C@@H](O)[C@@H](C)[C@H](OC(C)=O)[C@@H]1C` [Rifampicin], for which the MIC in series [1] (Escherichia coli, 1057WT, 24 h) worked out at 32 µM.
As for RPPHRPRPRPRPWFPPRFP [Rum-1[11-29]], in series [3], the Protein synthesis inhibition was 32 µM. Moreover, in series [4], the “Minimum inhibitory concentration MHB + 0.9% NaCl” value amounted to 64 µM, the “Minimum inhibitory concentration MHB” value turned out to be 8 µM and the “fold change of MIC” value is at least 4 fold.
PHRPRPRPRPWFPPRFP [Rum-1[13-29]] showed a Protein synthesis inhibition in series [3] of 64 µM. Besides, in series [4], the “Minimum inhibitory concentration MHB + 0.9% NaCl” value is above 256 µM and the “Minimum inhibitory concentration MHB” value is 32 µM.
`CO/N=C(\C(=O)N[C@@H]1C(=O)N2C(C(=O)O)=C(CSc3nc(=O)c(=O)[nH]n3C)CS[C@H]12)c1csc(N)n1` [Ceftriaxone]: the MIC in series [1] (Escherichia coli, 1057WT, 24 h) was 128 µM.
Turning to `NC[C@H]1O[C@H](O[C@H]2[C@H](O)[C@@H](O[C@H]3O[C@H](CO)[C@@H](O)[C@H](N)[C@H]3O)[C@H](N)C[C@@H]2N)[C@H](O)[C@@H](O)[C@@H]1O` [Kanamycin], the MIC in series [2] and in series [1] was 8 µM in each case.
Turning to RPRPRPRPWFPPRFP [Rum-1[15-29]], the Protein synthesis inhibition in series [3] is 256 µM. Further, in series [4], the “Minimum inhibitory concentration MHB + 0.9% NaCl” value was above 256 µM and the “Minimum inhibitory concentration MHB” value was found to be 32 µM.
`CC[C@H](C)[C@H](NC(=O)CN)C(=O)NCC(=O)N[C@@H](C)C(=O)N[C@H](C(=O)N[C@@H](CC(C)C)C(=O)N[C@@H](CCCCN)C(=O)N[C@H](C(=O)N[C@@H](CC(C)C)C(=O)N[C@H](C(=O)N[C@H](C(=O)NCC(=O)N[C@@H](CC(C)C)C(=O)N1CCC[C@H]1C(=O)N[C@@H](C)C(=O)N[C@@H](CC(C)C)C(=O)N[C@H](C(=O)N[C@@H](CO)C(=O)N[C@@H](Cc1c[nH]c2ccccc12)C(=O)N[C@H](C(=O)N[C@@H](CCCCN)C(=O)N[C@@H](CCCNC(=N)N)C(=O)N[C@@H](CCCCN)C(=O)N[C@@H](CCCNC(=N)N)C(=O)N[C@@H](CCC(N)=O)C(=O)N[C@@H](CCC(N)=O)C(N)=O)[C@@H](C)CC)[C@@H](C)CC)[C@@H](C)O)[C@@H](C)O)C(C)C)C(C)C` [Melittin]: the MIC in series [2] was 16 µM; in series [1] it was 8 µM. For the same molecule, the HaCaT cell viability is on record as 102.196% in series [5] (0.25 µM); 104.998% in series [5] (0.5 µM); 106.041% in series [5] (1 µM); 106.484% in series [5] (2 µM); 67.714% in series [5] (4 µM); 4.039% in series [5] (8 µM). Besides, the results for the HaCaT cell viability in series [5] (16 µM) and in series [5] (32 µM) were 2.958% and 4.046%, respectively. The HEK293T cell viability in series [6] (0.25 µM) was 101.366%; in series [6] (0.5 µM), 102.416%; in series [6] (1 µM) it was 98.73%; in series [6] (2 µM), 27.546%; in series [6] (4 µM) it was 9.889%; in series [6] (8 µM), 9.248%. For the same molecule, the HEK293T cell viability in series [6] (16 µM) was determined as 9.026%.
On to RPPKPRPPHRPRPRPRPWFPPRFP [Rum-1[6-29]], for which, in series [3], the Protein synthesis inhibition is 4 µM. For the same molecule, in series [4], the “Minimum inhibitory concentration MHB + 0.9% NaCl” value lay in the range of 16 to 32 µM, the “Minimum inhibitory concentration MHB” value is 4 µM and the “fold change of MIC” value is recorded as “two-fold”.

For the origin of these results see article PMC11484942, “Rumicidins are a family of mammalian host-defense peptides plugging the 70S ribosome exit tunnel” (Nature Communications, 2024).
